Tests used:
Progesterone receptor = molecular target: T1, Progesterone receptor (Homo sapiens, UniProt P06401); assay: Displacement of [3H]-progesterone from recombinant human His-tagged PR-b after 4 hrs by liquid scintillation counting
T1 sequence (P06401 whole entry): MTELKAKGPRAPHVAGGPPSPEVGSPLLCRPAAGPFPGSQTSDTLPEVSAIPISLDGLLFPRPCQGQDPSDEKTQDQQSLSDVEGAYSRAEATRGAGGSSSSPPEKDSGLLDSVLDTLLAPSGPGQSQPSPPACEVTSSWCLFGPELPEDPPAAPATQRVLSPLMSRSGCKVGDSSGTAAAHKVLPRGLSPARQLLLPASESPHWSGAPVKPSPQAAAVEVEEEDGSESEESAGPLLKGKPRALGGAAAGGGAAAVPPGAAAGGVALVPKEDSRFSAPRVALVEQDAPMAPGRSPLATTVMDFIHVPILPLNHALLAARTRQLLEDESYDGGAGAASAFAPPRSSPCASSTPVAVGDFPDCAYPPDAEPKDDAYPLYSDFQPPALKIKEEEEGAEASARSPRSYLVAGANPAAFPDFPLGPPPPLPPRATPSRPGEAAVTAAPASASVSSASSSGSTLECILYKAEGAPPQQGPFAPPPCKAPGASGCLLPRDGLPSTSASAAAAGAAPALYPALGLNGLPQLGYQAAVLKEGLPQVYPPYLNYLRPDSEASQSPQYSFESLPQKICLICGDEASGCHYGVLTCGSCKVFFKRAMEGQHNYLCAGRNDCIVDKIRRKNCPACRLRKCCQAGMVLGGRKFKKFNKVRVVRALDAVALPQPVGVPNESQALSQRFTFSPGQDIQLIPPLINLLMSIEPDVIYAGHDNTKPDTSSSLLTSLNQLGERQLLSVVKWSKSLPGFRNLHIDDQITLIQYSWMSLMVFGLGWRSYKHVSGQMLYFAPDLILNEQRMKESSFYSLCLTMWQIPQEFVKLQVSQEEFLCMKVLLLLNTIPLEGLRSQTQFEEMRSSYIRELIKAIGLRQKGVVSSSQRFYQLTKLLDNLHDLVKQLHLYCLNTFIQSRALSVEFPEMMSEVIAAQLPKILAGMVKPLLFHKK

Glucocorticoid receptor = molecular target: T2, Glucocorticoid receptor (Homo sapiens, UniProt P04150); assay: Binding affinity to GR (unknown origin) expressed in human IM9 cells; type: cell-based
T2 sequence (P04150 whole entry): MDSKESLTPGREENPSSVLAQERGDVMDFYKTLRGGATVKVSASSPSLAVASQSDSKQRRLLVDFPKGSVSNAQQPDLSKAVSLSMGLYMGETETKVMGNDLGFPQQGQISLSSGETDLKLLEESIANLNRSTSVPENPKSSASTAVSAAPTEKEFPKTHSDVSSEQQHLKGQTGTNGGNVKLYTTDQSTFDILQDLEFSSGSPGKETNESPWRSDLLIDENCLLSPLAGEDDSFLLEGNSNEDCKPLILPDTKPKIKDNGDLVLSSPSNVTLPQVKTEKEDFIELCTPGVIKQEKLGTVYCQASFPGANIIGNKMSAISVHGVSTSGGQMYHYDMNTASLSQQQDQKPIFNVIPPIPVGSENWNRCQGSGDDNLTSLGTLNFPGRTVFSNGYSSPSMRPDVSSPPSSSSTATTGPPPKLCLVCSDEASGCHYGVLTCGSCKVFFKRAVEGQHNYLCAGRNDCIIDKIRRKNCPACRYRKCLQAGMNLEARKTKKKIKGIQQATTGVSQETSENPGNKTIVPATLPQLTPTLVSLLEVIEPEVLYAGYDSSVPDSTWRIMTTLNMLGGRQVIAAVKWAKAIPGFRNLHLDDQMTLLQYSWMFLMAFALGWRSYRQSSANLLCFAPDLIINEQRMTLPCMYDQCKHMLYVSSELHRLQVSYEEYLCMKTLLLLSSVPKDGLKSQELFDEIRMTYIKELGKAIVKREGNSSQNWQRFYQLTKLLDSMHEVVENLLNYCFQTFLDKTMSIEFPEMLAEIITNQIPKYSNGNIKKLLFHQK

[1] = Fraction unbound in human plasma; type: ADME, cell-free
[2] = Fraction unbound in rat plasma; type: ADME, cell-free
[3] = Oral bioavailability in dog; type: ADME, organism-based, Canis lupus familiaris; conditions: in vivo
[4] = Apparent permeability across apical to basolateral side in RRCK cells; type: ADME, cell-based, Canis lupus familiaris, MDCKII-LE; conditions: dog, MDCK
[5] = AUC in Wistar rat at 500 mg/kg, po administered as single dose measured up to 8 hrs post dose by LC-MS analysis; type: ADME, organism-based; design: dose 500 mg/kg, time < 8 hr, route oral; conditions: in vivo
Rattus norvegicus = assay: Effect on reproductive system in Wistar Han rat at 30 to 500 mg/kg, po for 14 days; type: ADME, organism-based; conditions: in vivo, 336 h
Estrogen receptor = molecular target: T3, Estrogen receptor (Homo sapiens, UniProt P03372); assay: Binding affinity to ERalpha (unknown origin)
T3 sequence (P03372 whole entry): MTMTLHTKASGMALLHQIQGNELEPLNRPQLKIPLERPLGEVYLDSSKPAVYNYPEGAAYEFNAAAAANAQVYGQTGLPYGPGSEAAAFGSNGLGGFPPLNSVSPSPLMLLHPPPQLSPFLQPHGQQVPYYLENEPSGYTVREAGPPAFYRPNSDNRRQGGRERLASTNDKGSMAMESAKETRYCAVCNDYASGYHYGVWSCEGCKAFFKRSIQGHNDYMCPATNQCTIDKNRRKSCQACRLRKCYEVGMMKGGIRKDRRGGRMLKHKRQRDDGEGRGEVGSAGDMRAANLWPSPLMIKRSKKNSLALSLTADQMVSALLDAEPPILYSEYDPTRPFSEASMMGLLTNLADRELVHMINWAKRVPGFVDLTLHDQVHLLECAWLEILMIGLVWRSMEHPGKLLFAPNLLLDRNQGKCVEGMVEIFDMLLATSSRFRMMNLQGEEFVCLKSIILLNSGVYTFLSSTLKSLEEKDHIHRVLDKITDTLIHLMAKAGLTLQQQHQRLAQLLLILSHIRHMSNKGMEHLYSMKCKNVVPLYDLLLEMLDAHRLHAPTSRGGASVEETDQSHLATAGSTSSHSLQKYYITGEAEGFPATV

[6] = Intrinsic clearance in rat liver microsomes
[7] = Apparent permeability in RRCK cells; type: ADME, cell-based, Canis lupus familiaris, MDCKII-LE; conditions: dog, MDCK
hERG (KCNH2) = hERG (KCNH2) (Homo sapiens, UniProt Q12809); assay: Displacement of [3H]-dofetilide from human ERG at 10 uM; conditions: probe [3H]-dofetilide
Chain of hERG (KCNH2) (Q12809 whole entry): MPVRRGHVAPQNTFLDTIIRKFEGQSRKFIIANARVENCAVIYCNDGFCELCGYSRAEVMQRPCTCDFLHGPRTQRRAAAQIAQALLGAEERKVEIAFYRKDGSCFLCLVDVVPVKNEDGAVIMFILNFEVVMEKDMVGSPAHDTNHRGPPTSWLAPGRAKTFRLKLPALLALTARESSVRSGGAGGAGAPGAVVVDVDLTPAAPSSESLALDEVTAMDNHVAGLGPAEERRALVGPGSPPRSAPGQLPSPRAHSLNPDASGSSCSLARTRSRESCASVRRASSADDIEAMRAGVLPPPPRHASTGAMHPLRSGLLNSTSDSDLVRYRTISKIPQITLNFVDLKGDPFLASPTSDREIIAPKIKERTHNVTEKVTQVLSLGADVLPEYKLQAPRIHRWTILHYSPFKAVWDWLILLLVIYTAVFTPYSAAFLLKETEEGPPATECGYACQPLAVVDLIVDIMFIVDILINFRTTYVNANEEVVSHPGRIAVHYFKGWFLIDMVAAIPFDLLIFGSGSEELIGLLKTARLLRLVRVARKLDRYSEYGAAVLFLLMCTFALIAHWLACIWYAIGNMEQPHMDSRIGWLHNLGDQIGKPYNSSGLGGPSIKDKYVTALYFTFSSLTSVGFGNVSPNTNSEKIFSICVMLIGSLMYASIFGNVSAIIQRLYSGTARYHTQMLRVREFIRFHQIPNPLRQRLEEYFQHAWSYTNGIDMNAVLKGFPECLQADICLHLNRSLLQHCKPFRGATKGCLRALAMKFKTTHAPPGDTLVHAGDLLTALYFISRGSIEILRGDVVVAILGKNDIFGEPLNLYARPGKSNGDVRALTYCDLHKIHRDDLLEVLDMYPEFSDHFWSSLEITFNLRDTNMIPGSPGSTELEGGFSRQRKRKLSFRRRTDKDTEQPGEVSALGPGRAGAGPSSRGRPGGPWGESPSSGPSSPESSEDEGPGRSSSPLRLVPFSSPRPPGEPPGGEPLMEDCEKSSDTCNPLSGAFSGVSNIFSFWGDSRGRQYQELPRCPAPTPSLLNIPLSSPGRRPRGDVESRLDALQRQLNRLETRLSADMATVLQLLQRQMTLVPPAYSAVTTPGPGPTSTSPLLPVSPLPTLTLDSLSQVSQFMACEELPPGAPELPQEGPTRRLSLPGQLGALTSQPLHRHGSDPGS

IC50 (Progesterone receptor) [µM]	IC50 (Glucocorticoid receptor) [µM]	fraction unbound [1]	fraction unbound [2]	bioavailability [3] [%]	Papp A→B [4] [×10⁻⁶ cm/s]	AUC at 8 h [5] [ng·h/mL]	IC50 (Estrogen receptor) [µM]	microsomal CLint [6] [µL/min/mg]	Papp [7] [×10⁻⁶ cm/s]	SMILES	Activity (Rattus norvegicus)	inhibition at 10 µM (hERG (KCNH2)) [%]
> 10	0.597	0.15	0.15	65	45.9	13500	> 10			C[C@@H]1CN(c2ccc3c(n2)NC(=O)CO3)[C@H](c2ccccc2)CO1	Non-Toxic	
								223	29.3	O=C1COc2ccc(N3CCOC[C@H]3c3ccccc3)cc2N1		5

Source: ChEMBL document CHEMBL4024791, “Identification of Morpholino-2H-pyrido[3,2-b][1,4]oxazin-3(4H)-ones as Nonsteroidal Mineralocorticoid Antagonists” (J Med Chem, 2018)
